# Test results taken from PMC8356711 (Research in Pharmaceutical Sciences, 2021).
# Entries after “also recorded” stand apart in the source; their conditions may differ.
# Target: T1, mushroom tyrosinase (Agaricus bisporus, UniProt C7FF04)
# Experiment: not given
# Details: Lineweaver-Burk plot, L-DOPA substrate
# T1 sequence (C7FF04 1-392): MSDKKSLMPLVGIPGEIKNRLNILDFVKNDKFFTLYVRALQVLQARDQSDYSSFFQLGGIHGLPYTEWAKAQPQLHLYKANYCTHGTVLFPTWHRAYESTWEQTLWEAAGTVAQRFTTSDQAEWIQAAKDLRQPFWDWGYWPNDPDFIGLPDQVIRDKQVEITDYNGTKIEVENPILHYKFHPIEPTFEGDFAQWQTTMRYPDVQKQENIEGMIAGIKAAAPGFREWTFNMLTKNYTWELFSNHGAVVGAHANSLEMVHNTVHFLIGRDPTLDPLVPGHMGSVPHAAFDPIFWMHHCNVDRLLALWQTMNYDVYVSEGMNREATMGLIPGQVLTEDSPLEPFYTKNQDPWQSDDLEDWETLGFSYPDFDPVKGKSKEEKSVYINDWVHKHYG
row,Compound,inhibition type
1,"COc1cc(/C=C2\CCc3cc(O)ccc3C2=O)cc(OC)c1OC [C2, (E) - 6-hydroxy - 2-(3,4,5-trimethoxy-benzylidene)-3,4-dihydronaphthalen-1(2H)-one]",competitively; also recorded: competitive tyrosinase inhibitor

# Target: T1, mushroom tyrosinase
# Experiment: biochemical
# Details: not given
row,IC50 [µM],Compound
1,17.6 ± 1.1,"COc1ccc(/C=C2\CCc3cc(O)ccc3C2=O)cc1 [C1, (E)-6-hydroxy-2-(4-methoxybenzylidene)-3,4-dihydronaphthalen-1(2H)-one]"
2,8.8 ± 1.8,"COc1cc(/C=C2\CCc3cc(O)ccc3C2=O)cc(OC)c1OC [C2, (E) - 6-hydroxy - 2-(3,4,5-trimethoxy-benzylidene)-3,4-dihydronaphthalen-1(2H)-one]"
3,11.1 ± 2.5,"COc1ccccc1/C=C1\CCc2cc(O)ccc2C1=O [C3, (E)-6-hydroxy-2-(2-methoxybenzylidene)-3,4-dihydronaphthalen-1(2H)-one]"
4,21.4 ± 3.1,"CCOc1cc(/C=C2\CCc3cc(O)ccc3C2=O)ccc1O [C4, (E)-2-(3-ethoxy-4-hydroxybenzylidene)-6-hydroxy-3,4-dihydronaphthalen-1(2H)-one]"
5,48.6 ± 2.9,"O=C1/C(=C/c2ccc(O)cc2)CCc2cc(O)ccc21 [C5, (E)-6-hydroxy-2-(4-hydroxybenzylidene)-3,4-dihydronaphthalen-1(2H)-one]"
6,17.6 ± 2.4,"COc1ccc(/C=C2\CCc3cc(O)ccc3C2=O)cc1OC [C6, (E)-2-(3,4-dimethoxybenzylidene)-6-hydroxy-3,4-dihydronaphthalen-1(2H)-one]"
7,22.4 ± 3.1,"O=C1/C(=C/c2ccc(Cl)cc2)CCc2cc(O)ccc21 [C7, (E)-2-(4-chlorobenzylidene)-6-hydroxy-3,4-dihydronaphthalen-1(2H)-one]"
8,> 50,"COc1cc(/C=C2\CCc3cc(O)ccc3C2=O)cc(OC)c1O [C9, (E)-6-hydroxy-2-(4-hydroxy-3,5-dimethoxy-benzylidene)-3,4-dihydronaphthalen-1(2H)-one]"
